Columns and labels:
[1] = Phase 2a study, plasma pharmacokinetics; assay type: in vivo, human
Experimental: PK blood draws assessed systemic exposure.
The topical formulation was applied topically twice per day, approximately 8 to 12 hours apart. Up to 8 mL, 1 mL at a time, is applied to an identified AD target area of the subject and rubbed into said area by the subject to achieve a thin film on the skin. Less than 8 mL may be used if less is required to fully cover the identified AD target area. Subjects document symptoms of AD, such as itching, on a daily basis. Subjects were asked to abstain from washing the treated area within 6 hours after application, minimize sun exposure, refrain from using moisturizers, emollients, and sunscreen on the treatment areas, and refrain from activities that would cause profuse sweating (e.g., exercise) for a period of 6 hours after each application. The study ran 4 weeks. On days 1, 8, and 15, a pharmacokinetic sample (e.g., blood) was collected from each subject about 2 hours after application of the topical formulation. On day 28, the following pharmacokinetic samples were collected: • Subgroup 1: One sample before application and one sample at 0.5 to 2.5 hours post application • Subgroup 2: One sample at 2.5 to 5 hours post application and one sample at least 2 hours later • Subgroup 3: One sample at 5 to 8 hours post application and one sample at least 2 hours later (prior to the subsequent application)

[2] = Phase 2a study, plasma pharmacokinetics; assay type: in vivo, human; remark: listed apart in the source

## CCOC(=O)c1cnc2[nH]ccc2c1N[C@@H]1CCCN(C(=O)CC#N)C1 [Compound I, ethyl (R)-4-((1-(2-cyanoacetyl)piperidin-3-yl)amino)-1H-pyrrolo[2,3-b]pyridine-5-carboxylate]
[1]; subject 004-0002, Day 28/ET, 0.5-2.5 hr
  Plasma Compound I CONC: 0.168 ng/mL
[1]; subject 004-0002, Day 28/ET, hour 0 Predose
  Plasma Compound I CONC: 0.165 ng/mL
[1]; subject 004-0004, Day 1, hour 0 Predose, LLOQ 0.100
  Plasma Compound I CONC: <LLOQ
[1]; subject 004-0004, Day 1, hour 2, LLOQ 0.100
  Plasma Compound I CONC: <LLOQ
[1]; subject 004-0004, Day 8, hour 0 Predose, LLOQ 0.100
  Plasma Compound I CONC: <LLOQ
[1]; subject 004-0004, Day 8, hour 2, LLOQ 0.100
  Plasma Compound I CONC: <LLOQ
[1]; subject 004-0004, Day 15, hour 2, LLOQ 0.100
  Plasma Compound I CONC: <LLOQ
[1]; subject 004-0004, Day 28/ET, 5-8 hr, LLOQ 0.100
  Plasma Compound I CONC: <LLOQ
[1]; subject 004-0004, Day 28/ET, 7-10 hr
  Plasma Compound I CONC: 0.104 ng/mL
[1]; subject 004-0008, Day 1, hour 2
  Plasma Compound I CONC: 1.62 ng/mL
[1]; subject 004-0008, Day 8, hour 0 Predose
  Plasma Compound I CONC: 0.616 ng/mL
[1]; subject 004-0008, Day 8, hour 2
  Plasma Compound I CONC: 0.639 ng/mL
[1]; subject 004-0008, Day 15, hour 0 Predose
  Plasma Compound I CONC: 0.740 ng/mL
[1]; subject 004-0008, Day 15, hour 2
  Plasma Compound I CONC: 0.512 ng/mL
[1]; subject 004-0008, Day 28/ET, 2.5-5 hr
  Plasma Compound I CONC: 0.543 ng/mL
[1]; subject 004-0008, Day 28/ET, 4.5-7 hr
  Plasma Compound I CONC: 0.441 ng/mL
[1]; subject 012-0001, Day 1, hour 0 Predose, LLOQ 0.100
  Plasma Compound I CONC: <LLOQ
[1]; subject 012-0001, Day 1, hour 2
  Plasma Compound I CONC: 14.9 ng/mL
[1]; subject 012-0001, Day 8, hour 2
  Plasma Compound I CONC: 1.50 ng/mL
[1]; subject 012-0001, Day 15, hour 0 Predose
  Plasma Compound I CONC: 0.521 ng/mL
[1]; subject 012-0001, Day 15, hour 2
  Plasma Compound I CONC: 1.05 ng/mL
[1]; subject 012-0001, Day 28/ET, 0.5-2.5 hr
  Plasma Compound I CONC: 3.71 ng/mL
[1]; subject 012-0001, Day 28/ET, hour 0 Predose
  Plasma Compound I CONC: 1.23 ng/mL
[1]; subject 012-0017, Day 1, hour 0 Predose, LLOQ 0.100
  Plasma Compound I CONC: <LLOQ
[1]; subject 012-0017, Day 1, hour 2
  Plasma Compound I CONC: 2.45 ng/mL
[1]; subject 012-0017, Day 8, hour 0 Predose
  Plasma Compound I CONC: 0.845 ng/mL
[1]; subject 012-0017, Day 8, hour 2
  Plasma Compound I CONC: 0.459 ng/mL
[1]; subject 012-0017, Day 15, hour 0 Predose
  Plasma Compound I CONC: 11.1 ng/mL
[1]; subject 012-0017, Day 15, hour 2
  Plasma Compound I CONC: 5.26 ng/mL
[1]; subject 012-0017, Day 28/ET, 5-8 hr
  Plasma Compound I CONC: 0.536 ng/mL
[1]; subject 012-0017, Day 28/ET, 7-10 hr
  Plasma Compound I CONC: 0.704 ng/mL
[1]; subject 13-0001, Day 1, hour 0 Predose, LLOQ 0.100
  Plasma Compound I CONC: <LLOQ
[1]; subject 13-0001, Day 1, hour 2
  Plasma Compound I CONC: 12.9 ng/mL
[1]; subject 13-0001, Day 8, hour 0 Predose
  Plasma Compound I CONC: 0.914 ng/mL
[1]; subject 13-0001, Day 8, hour 2
  Plasma Compound I CONC: 1.79 ng/mL
[1]; subject 13-0001, Day 15, hour 2
  Plasma Compound I CONC: 1.86 ng/mL
[1]; subject 13-0001, Day 28/ET, 0.5-2.5 hr
  Plasma Compound I CONC: 3.99 ng/mL
[1]; subject 13-0001, Day 28/ET, hour 0 Predose
  Plasma Compound I CONC: 0.530 ng/mL
[1]; whole study
  Highest plasma concentration in any subject: ≤ 15 ng/mL
  Samples with plasma concentrations > 1/10th the IC50: 6 total samples
  Subjects with plasma concentrations > 1/10th the IC50: 3 subjects
[2]; subject 004-0002, Day 8, hour 0 Predose
  Plasma Compound I CONC: 0.188 ng/mL
[2]; subject 004-0002, Day 15, hour 0 Predose
  Plasma Compound I CONC: 0.100 ng/mL
[2]; subject 004-0004, Day 15, hour 0 Predose, LLOQ 0.100
  Plasma Compound I CONC: <LLOQ
[2]; subject 004-0008, Day 1, hour 0 Predose, LLOQ 0.100
  Plasma Compound I CONC: <LLOQ
[2]; subject 012-0001, Day 8, hour 0 Predose
  Plasma Compound I CONC: 1.43 ng/mL
[2]; subject 13-0001, Day 15, hour 0 Predose
  Plasma Compound I CONC: 0.598 ng/mL

— patent US20240139170A1, “TOPICAL FORMULATIONS OF A JAK 1/3 INHIBITOR AND METHODS OF USE THEREOF FOR TREATMENT OF ATOPIC DERMATITIS AND OTHER SKIN CONDITIONS” (ACLARIS THERAPEUTICS, INC., priority 2021, published 2024)
